Assay results from patent publication US20090170934A1, “MANUFACTURING PROCESS FOR NO-DONATING COMPOUNDS SUCH AS NO-DONATING DICLOFENAC” (NICOX SA, priority 2002, published 2009).

melting point: 73 °C
SMILES: O=C(Cc1ccccc1Nc1c(Cl)cccc1Cl)OCCOCCO[N+](=O)[O-] [Compound IVa, 2-[2-(nitrooxy)ethoxy]ethyl {2-[(2,6-dichlorophenyl)amino]phenyl}acetate]
